A word on the melting point: it is the temperature, or range, at which the solid turns liquid.

A value given as a limit tells only on which side of the number the result lay.

Results on 17 molecules are retold here after US11753407B2, “Compounds for treating spinal muscular atrophy” (PTC Therapeutics, Inc., priority 2012, dated 2023).

In series [1] the test system is Smn protein in SMA patient fibroblast cells (GM03813). Kind of series: Smn protein assay in cultured cells (SMN HTRF). Type of series: cell-based, human. Particulars: SMA patient fibroblast cells, 48 hours; for EC1.5x for Smn protein expression: 7-point concentration curve, SMN HTRF, concentration producing 1.5 times Smn protein vs DMSO vehicle control; for maximum fold (Fold) increase of Smn protein: 7-point concentration data, fold relative to vehicle control. The essentials:
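Cells were cultured 72 h, seeded at 5,000/well and dosed with seven concentrations (3.16-fold apart) for 48 h. HTRF on lysates, read at 665 and 620 nm, gave blank-corrected ΔF values relative to DMSO. Potency is reported as EC1.5×, efficacy as maximal fold Smn increase.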

In series [2] the test system is SMN2 minigene mRNA (SMN2-A minigene) in HEK293H cells. The series can be described thus: SMN2 minigene mRNA splicing RT-qPCR assay in cultured cells. Type of series: cell-based, human. Particulars: Homo sapiens, HEK293-H; concentration increasing full length SMN2 mRNA 1.5-fold relative to vehicle-treated cells; HEK293H cells with SMN2-A minigene, 24 hours, 7-point concentration data; read-out: EC1.5x for production of full length SMN2 mRNA. The essentials:
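EC1.5× values derive from a 24 h treatment of SMN2-A minigene HEK293H cells and GAPDH-normalized RT-qPCR of exon 7-included minigene mRNA relative to vehicle-treated cells.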

For the molecule `C[C@H]1CN(c2ccc3nc(-c4cc(F)cc(C#N)c4)cc(=O)n3c2)CCN1` [Compound 230, 3-fluoro-5-{7-[(3S)-3-methylpiperazin-1-yl]-4-oxo-4H-pyrido[1,2-a]pyrimidin-2-yl}benzonitrile], the melting point is 185 to 188 °C. Further, in series [1], the “EC1.5x for Smn protein expression” value was “** (an EC1.5× between >1 μM and ≤3 μM is indicated by two stars (**))”; the “maximum fold (Fold) increase of Smn protein” value (“maximum fold (Fold) increase” below) was “**** (a fold increase between >1.5 and ≤1.65 is indicated by four stars (****))”. In addition, the EC (1.5-fold increase) in series [2] was in the range of 0.3 to 1 µM.

Molecule `Cc1cn2cc(-c3ccc4nc(C5CCNCC5)cc(=O)n4c3)ccc2n1` [Compound 409, 7-(2-methylimidazo[1,2-a]pyridin-6-yl)-2-(piperidin-4-yl)-4H-pyrido[1,2-a]pyrimidin-4-one] showed a melting point of 255 to 258 °C. Moreover, in series [1], the “EC1.5x for Smn protein expression” value was “**** (an EC1.5x≤0.3 μM is indicated by four stars (****))” and the “maximum fold (Fold) increase” value is “***** (a fold increase >1.65 is indicated by five stars (*****))”. For the same molecule, the EC (1.5-fold increase) in series [2] was below 0.1 µM.

Take `O=c1cc(-c2ccn3ccnc3c2)nc2ccc(N3CCNCC3)cn12` [Cpd 107, 2-(imidazo[1,2-a]pyridin-7-yl)-7-(piperazin-1-yl)-4H-pyrido[1,2-a]pyrimidin-4-one]: the melting point lay within 258 to 270 °C. For the same molecule, the “maximum fold (Fold) increase” value in series [1] is “** (a fold increase between >1.2 and ≤1.35 is indicated by two stars (**))”. Moreover, the EC (1.5-fold increase) in series [2] lay in the range of 0.3 to 1 µM.

Molecule `O=c1cc(-c2ccc(OC(F)F)cc2)nc2ccc(N3CCNCC3)cn12` [Compound 59, 2-[4-(difluoromethoxy)phenyl]-7-(piperazin-1-yl)-4H-pyrido[1,2-a]pyrimidin-4-one] returned a melting point of 131 to 133 °C. Further, the “maximum fold (Fold) increase” value in series [1] is “* (A maximum fold increase of ≤1.2 is indicated by one star (*))”. Besides, the EC (1.5-fold increase) in series [2] lay within 1 to 3 µM.

Molecule `Cc1cn2cc(-c3cc(=O)n4cc(N5CCN(CCOCCO)[C@@H](C)C5)ccc4n3)cc(F)c2n1` [Compound 540, 2-(8-fluoro-2-methylimidazo[1,2-a]pyridin-6-yl)-7-{(3S)-4-[2-(2-hydroxyethoxy)ethyl]-3-methylpiperazin-1-yl}-4H-pyrido[1,2-a]pyrimidin-4-one] registered a melting point of 175 to 181 °C. In series [1], the “maximum fold (Fold) increase” value is “*** (a fold increase between >1.35 and ≤1.5 is indicated by three stars (***))”. Also, the EC (1.5-fold increase) in series [2] was below 0.1 µM.

`COc1ccc(-c2cc(=O)n3cc(N4CCNCC4)cc(OC)c3n2)cc1OC` [Cpd 70, 2-(3,4-dimethoxyphenyl)-9-methoxy-7-(piperazin-1-yl)-4H-pyrido[1,2-a]pyrimidin-4-one] came in with a melting point of 185 to 187 °C. Also, the “maximum fold (Fold) increase” value in series [1] is reported as “* (A maximum fold increase of ≤1.2 is indicated by one star (*))”. For the same molecule, the EC (1.5-fold increase) in series [2] lay within 1 to 3 µM.

Consider `CCN1CCN(c2ccc3nc(-c4ccn5cc(C)nc5c4)cc(=O)n3c2)CC1` [Compound 558, 7-(4-ethylpiperazin-1-yl)-2-(2-methylimidazo[1,2-a]pyridin-7-yl)-4H-pyrido[1,2-a]pyrimidin-4-one], for which the melting point lay in the range of 219 to 222 °C. Besides, the “maximum fold (Fold) increase” value in series [1] was “** (a fold increase between >1.2 and ≤1.35 is indicated by two stars (**))”. Moreover, the EC (1.5-fold increase) in series [2] is 1 to 3 µM.

Turning to `Cc1cc(C2CCN(C3CC3)CC2)cn2c(=O)cc(-c3ccc4nn(C)cc4c3)nc12` [Compound 718, 7-(1-cyclopropylpiperidin-4-yl)-9-methyl-2-(2-methyl-2H-indazol-5-yl)-4H-pyrido[1,2-a]pyrimidin-4-one], the melting point lay in the range of 226 to 231 °C. In addition, in series [1], the “EC1.5x for Smn protein expression” value is “*** (an EC1.5× between >0.3 μM and ≤1 μM is indicated by three stars (***))”; the “maximum fold (Fold) increase” value was “**** (a fold increase between >1.5 and ≤1.65 is indicated by four stars (****))”. Moreover, the EC (1.5-fold increase) in series [2] is below 0.1 µM.

The molecule `Cc1cn2cc(-c3cc(=O)n4cc(N5CCCN(C)CC5)ccc4n3)ccc2n1` [Compound 169, 7-(4-methyl-1,4-diazepan-1-yl)-2-(2-methylimidazo[1,2-a]pyridin-6-yl)-4H-pyrido[1,2-a]pyrimidin-4-one] displayed a melting point of 208 to 213 °C. For the same molecule, in series [1], the “EC1.5x for Smn protein expression” value was “**** (an EC1.5x≤0.3 μM is indicated by four stars (****))”; the “maximum fold (Fold) increase” value was “**** (a fold increase between >1.5 and ≤1.65 is indicated by four stars (****))”. Besides, the EC (1.5-fold increase) in series [2] is below 0.1 µM.

For `Cc1cc(C2CCN(CCO)CC2)cn2c(=O)cc(-c3ccc4c(cnn4C)c3)nc12` [Compound 788, 7-[1-(2-hydroxyethyl)piperidin-4-yl]-9-methyl-2-(1-methyl-1H-indazol-5-yl)-4H-pyrido[1,2-a]pyrimidin-4-one], the melting point is 225 to 228 °C. Besides, in series [1], the “EC1.5x for Smn protein expression” value was “**** (an EC1.5x≤0.3 μM is indicated by four stars (****))” and the “maximum fold (Fold) increase” value is “***** (a fold increase >1.65 is indicated by five stars (*****))”. For the same molecule, the EC (1.5-fold increase) in series [2] is below 0.1 µM.

`Cc1nc2ccc(-c3cc(=O)n4nc(C5CCNCC5)ccc4n3)cc2s1.O=C(O)C(F)(F)F` [Cpd 380, 2-(2-methyl-1,3-benzothiazol-6-yl)-7-(piperidin-4-yl)-4H-pyrimido[1,2-b]pyridazin-4-one trifluoroacetate (1:1)] had a melting point of 230 to 235 °C. Besides, in series [1], the “EC1.5x for Smn protein expression” value is “*** (an EC1.5× between >0.3 μM and ≤1 μM is indicated by three stars (***))”; the “maximum fold (Fold) increase” value was “**** (a fold increase between >1.5 and ≤1.65 is indicated by four stars (****))”. Also, the EC (1.5-fold increase) in series [2] lay within 0.1 to 0.3 µM.

`Cn1cc2cc(-c3cc(=O)n4cc(N5CCN(CCO)CC5)ncc4n3)ccc2n1` [Compound 591, 7-[4-(2-hydroxyethyl)piperazin-1-yl]-2-(2-methyl-2H-indazol-5-yl)-4H-pyrazino[1,2-a]pyrimidin-4-one] registered a melting point of 200 to 202 °C. Also, in series [1], the “EC1.5x for Smn protein expression” value is “** (an EC1.5× between >1 μM and ≤3 μM is indicated by two stars (**))”; the “maximum fold (Fold) increase” value is “**** (a fold increase between >1.5 and ≤1.65 is indicated by four stars (****))”. In addition, the EC (1.5-fold increase) in series [2] is 0.3 to 1 µM.

On to `Cc1cc(-c2cc(=O)n3cc(N4CCN(C)CC4)ccc3n2)cc2cn(C)nc12` [Compound 768, 2-(2,7-dimethyl-2H-indazol-5-yl)-7-(4-methylpiperazin-1-yl)-4H-pyrido[1,2-a]pyrimidin-4-one], for which the melting point was in the range of 216 to 218 °C. Besides, in series [1], the “EC1.5x for Smn protein expression” value is on record as “**** (an EC1.5x≤0.3 μM is indicated by four stars (****))” and the “maximum fold (Fold) increase” value was “***** (a fold increase >1.65 is indicated by five stars (*****))”. In addition, the EC (1.5-fold increase) in series [2] is below 0.1 µM.

As for `COc1c(F)cc(-c2cc(=O)n3cc(N4CCN[C@@H](C)C4)ccc3n2)cc1F` [Compound 184, 2-(3,5-difluoro-4-methoxyphenyl)-7-[(3S)-3-methylpiperazin-1-yl]-4H-pyrido[1,2-a]pyrimidin-4-one], the melting point fell in the range of 182 to 184 °C. The “maximum fold (Fold) increase” value in series [1] was “** (a fold increase between >1.2 and ≤1.35 is indicated by two stars (**))”. For the same molecule, the EC (1.5-fold increase) in series [2] is 1 to 3 µM.

The molecule `CCCc1nc(C)cn2nc(-c3cc(=O)n4cc(N5CCN(C)CC5)ccc4n3)cc12` [Compound 724, 7-(4-methylpiperazin-1-yl)-2-(6-methyl-4-propylpyrazolo[1,5-a]pyrazin-2-yl)-4H-pyrido[1,2-a]pyrimidin-4-one] yielded a melting point of 246 to 248 °C. In addition, in series [1], the “EC1.5x for Smn protein expression” value is “*** (an EC1.5× between >0.3 μM and ≤1 μM is indicated by three stars (***))”; the “maximum fold (Fold) increase” value is reported as “***** (a fold increase >1.65 is indicated by five stars (*****))”. The EC (1.5-fold increase) in series [2] is 0.3 to 1 µM.

`CCc1nc(C)cn2nc(-c3cc(=O)n4cc(C5CCN(C6COC6)CC5)ccc4n3)cc12` [Compound 682, 2-(4-ethyl-6-methylpyrazolo[1,5-a]pyrazin-2-yl)-7-[1-(oxetan-3-yl)piperidin-4-yl]-4H-pyrido[1,2-a]pyrimidin-4-one]: the melting point was in the range of 190 to 192 °C. In series [1], the “EC1.5x for Smn protein expression” value is “** (an EC1.5× between >1 μM and ≤3 μM is indicated by two stars (**))”; the “maximum fold (Fold) increase” value is “***** (a fold increase >1.65 is indicated by five stars (*****))”. Also, in series [2], the EC (1.5-fold increase) was in the range of 0.3 to 1 µM.

Regarding `COc1ccc(-c2cc(=O)n3cc(C4=CCC(N(C)C)CC4)ccc3n2)cc1OC` (centres unmarked) [Compound 367, 2-(3,4-dimethoxyphenyl)-7-[4-(dimethylamino)cyclohex-1-en-1-yl]-4H-pyrido[1,2-a]pyrimidin-4-one], the melting point lay within 162 to 164 °C. In addition, in series [1], the “EC1.5x for Smn protein expression” value is “* (An EC1.5× for Smn protein expression between >3 μM and ≤10 μM is indicated by one star (*))”; the “maximum fold (Fold) increase” value was “*** (a fold increase between >1.35 and ≤1.5 is indicated by three stars (***))”. For the same molecule, the EC (1.5-fold increase) in series [2] was below 0.1 µM.
